One may read the melting point as the temperature, or range, at which the solid turns liquid. As a reminder, the Ki is the dissociation constant of the complex between target and ligand, obtained from inhibition or displacement. The term Cmax denotes the peak of the concentration-time curve. By Tmax is commonly meant the time at which the peak concentration occurs. Usually half-life stands for the time in which the quantity being followed falls by half. A higher half-life goes with slow decline.

Molecules are shown by their SMILES. Counter-ions that a name gives are not always drawn. Like-named read-outs stand apart in the source and are kept apart here.

Five compounds from patent US8815919B2, “Oxadiazole derivatives” (Merck Serono SA, priority 2009, dated 2014) can be followed below.

Series [1] concerns the target T1, S1P1 (Homo sapiens, UniProt P21453). As to the kind of experiment: 35S-GTPγS binding on membranes of CHO cells expressing S1P1. The settings on record: read-out: S1P1/GTPG EC50. Type of series: biochemical. Here is the method: (§1) Membranes were prepared from CHO cells expressing S1P1 or S1P3 for use in ligand and […] binding studies. Cells were suspended in 50 mM TRIS, pH 7.4, 2 mM EDTA, 250 mM Sucrose (buffer A) and 1× Complete protease inhibitor cocktail (Roche), and disrupted at 4° C. by N2 decompression using a cell disruption bomb (Parr Instrument). Following centrifugation at 1000 RPM for 10 min at 4° C., the supernatant was diluted (2×) in buffer A and centrifuged again at 19000 RPM for 75 min at 4° C. The pellet was then suspended in 10 mM HEPES, pH 7.4, 1 mM EDTA, 250 mM Sucrose (Buffer B), and 1× Complete EDTA-free protease inhibitor cocktail and homogenized using a potter. Membranes were flash frozen in liquid N2 and stored at −80° C.
(§2) Membranes (1 to 10 μg protein) prepared as described above, were incubated in 96-well Scintiplates (PerkinElmer) with test compounds diluted in DMSO, in 140 μl of 20 mM HEPES, pH 7.4, 10 mM MgCl2, 2 μg/well Saponin, 0.2% fatty acid free BSA (Assay buffer), 125 mM NaCl and 1.5 μM GDP. The assay was initiated with the addition of 60 μl of 1.5 nM [35S]-GTPγS (1100 Ci/mmol; GE Healthcare) in assay buffer. After 60 min incubation at 30° C. on a shaker, plates were centrifuged for 10 min at 2000 RPM. Supernatant was discarded and membrane bound radioactivity was measured on a PerkinElmer 1450 MicroBeta counter. Triplicate samples were averaged and expressed as % response relative to S1P activation in absence of compound (n=2).
(§3) The “potency” or the “activity” of the compounds is determined by the EC50 values as evaluated in the above described 35S-GTPγS binding assay.
Target sequence in this assay (P21453 whole entry, species assumed): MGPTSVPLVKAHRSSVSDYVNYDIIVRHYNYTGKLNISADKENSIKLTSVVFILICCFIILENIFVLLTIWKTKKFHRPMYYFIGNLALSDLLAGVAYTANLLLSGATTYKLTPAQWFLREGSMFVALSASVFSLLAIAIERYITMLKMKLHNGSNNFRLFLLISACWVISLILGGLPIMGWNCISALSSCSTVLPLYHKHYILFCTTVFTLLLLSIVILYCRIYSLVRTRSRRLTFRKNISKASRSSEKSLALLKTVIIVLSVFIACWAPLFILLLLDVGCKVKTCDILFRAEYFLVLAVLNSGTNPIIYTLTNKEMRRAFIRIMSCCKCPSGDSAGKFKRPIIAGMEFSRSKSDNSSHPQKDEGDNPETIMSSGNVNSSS

Series [2] addresses T2, S1P3 (Homo sapiens, UniProt Q99500). As to the kind of experiment: 35S-GTPγS binding on membranes of CHO cells expressing S1P3. Type of series: biochemical. The settings on record: read-out: S1P3/GTPG EC50. Here is the method: as §1, §2, §3
Series [3] deals with T1, S1P1. As to the kind of experiment: Receptor binding assay, [33P]sphingosine 1-phosphate competition, S1P1 membranes, WGA SPA beads. The essentials: (§4)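 Competition of [33P]S1P ([…]) on CHO cell membranes with WGA SPA beads in 50 mM HEPES pH 7.5, 5 mM MgCl2, 100 mM NaCl, 0.4% fatty acid-free BSA; 60 min at RT. Triplicates normalised to total binding and nonspecific binding (1000-fold excess unlabeled S1P).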
Target sequence in this assay (P21453 whole entry, species assumed): as above

The target in series [4] is T2, S1P3. As to the kind of experiment: Receptor binding assay, [33P]sphingosine 1-phosphate competition, S1P3 membranes, WGA SPA beads. The method, boiled down:
as §4

A further series concerns lymphocytes. As to the kind of experiment: Model of S1P agonists-induced lymphopenia in mice. The settings on record: oral. Type of series: in vivo. The procedure:
(§5) Female C57BL/6 mice (Elevage Janvier) (8 week old) receive S1P agonists by oral route. Blood is sampled in heparinized (100 IU/kg, ip) mice by intracardiac or retroorbital puncture under isoflurane anesthesia 2 to 120 hrs after drug treatment. The white blood cells (lymphocytes and neutrophils) are counted using a Beckman/Coulter counter. The quality of blood sampling is assessed by counting erythocytes and platelets.

Series [5] is described as follows: Pharmacokinetics in mouse (PK parameters from lymphopenia study). Format: in vivo. The settings on record: 30 mpk. Here is the method: as §5
Pharmacokinetics Data: • The pharmacoinetic properties of compound of example 20, N-(3-fluoro-5-{5-[2-(methoxymethyl)-2′-methylbiphenyl-4-yl]-1,2,4-oxadiazol-3-yl}benzyl)-N-methylglycine, hydrochloride salt, are the following: […]

For series [6], the target named is T1, S1P1. Briefly: S1P1 internalization assay in S1P1-U2OS cells (S1P1-EGFP), cell imaging. The settings on record: 1 hour incubation. Further details: host or cells: U2OS (human bone osteosarcoma epithelial cells), CMV promoter, geneticin selection. Format: cell-based. The method, boiled down:
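U2OS cells stably expressing human S1P1-EGFP, plated overnight in 1% FCS medium, then serum-starved 2 h in 0.1% fatty-acid-free BSA before 1 h compound exposure at 37 °C. After PFA fixation and Hoechst staining, internalization imaged as EGFP spot count per nucleus.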
Target sequence in this assay (P21453 whole entry): as the sequence (P21453 whole entry, species assumed) above

[7] abbreviates: female, C57BL/6, plasma, po, 30 mg/kg.

T2 sequence (Q99500 whole entry, species assumed): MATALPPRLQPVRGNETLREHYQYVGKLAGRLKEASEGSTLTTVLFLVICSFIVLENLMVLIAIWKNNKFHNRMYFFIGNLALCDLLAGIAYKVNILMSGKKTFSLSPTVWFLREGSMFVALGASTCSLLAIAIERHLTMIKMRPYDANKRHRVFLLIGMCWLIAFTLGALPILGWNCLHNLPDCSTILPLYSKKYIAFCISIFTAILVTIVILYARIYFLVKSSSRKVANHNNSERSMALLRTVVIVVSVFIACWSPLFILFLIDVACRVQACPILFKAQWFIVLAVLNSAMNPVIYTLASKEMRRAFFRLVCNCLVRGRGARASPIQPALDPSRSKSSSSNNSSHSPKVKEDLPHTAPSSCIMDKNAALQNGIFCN

In turn, `COCc1cc(-c2nc(-c3cccc(CN(C)CC(=O)O)c3)no2)ccc1-c1cc(F)ccc1C` (as salt: hydrochloride) [Example 37, N-(3-{5-[5′-fluoro-2-(methoxymethyl)-2′-methylbiphenyl-4-yl]-1,2,4-oxadiazol-3-yl}benzyl)-N-methylglycine, hydrochloride salt] showed a melting point of 177 to 183 °C.
Compound `COCc1cc(-c2nc(-c3ccc(CN(C)CC(=O)O)cc3)no2)ccc1-c1ccccc1Cl` (as salt: hydrochloride) [Example 118, N-(4-{5-[2′-chloro-2-(methoxymethyl)biphenyl-4-yl]-1,2,4-oxadiazol-3-yl}benzyl)-N-methylglycine, hydrochloride salt] returned a melting point of 194 to 200 °C.
Regarding `COCc1cc(-c2nc(-c3ccc(CN(C)CC(=O)O)c(F)c3)no2)ccc1-c1ccccc1Cl` (as salt: hydrochloride) [Example 119, N-(4-{5-[2′-chloro-2-(methoxymethyl)biphenyl-4-yl]-1,2,4-oxadiazol-3-yl}-2-fluorobenzyl)-N-methylglycine, hydrochloride salt], the melting point lay within 181 to 188 °C.
Still for that read-out and setting: the value for `Cc1cc(-c2nc(-c3ccc(CN(C)CC(=O)O)cc3)no2)ccc1-c1ccccc1C(F)F` (as salt: hydrochloride) [Example 137, N-(4-{5-[2′-(difluoromethyl)-2-methylbiphenyl-4-yl]-1,2,4-oxadiazol-3-yl}benzyl)-N-methylglycine, hydrochloride salt] was 229 to 234 °C.
As to `COCc1cc(-c2nc(-c3cc(F)cc(CN(C)CC(=O)O)c3)no2)ccc1-c1ccccc1C` [Example 20, N-(3-fluoro-5-{5-[2-(methoxymethyl)-2′-methylbiphenyl-4-yl]-1,2,4-oxadiazol-3-yl}benzyl)-N-methylglycine, hydrochloride salt], the EC50 on S1P1 [1] is 0.717 nM; at S1P3 [2] it was 59.9 nM; at S1P1 [6] it was 5.33 nM. The Ki on S1P1 [3] (96 well-plate, read-out: S1P1 binding Ki (M) (96 well-plate)) worked out at 1.69e-10 M; on S1P1 [3] (384 well-plate, read-out: S1P1 binding Ki (M) (384 well-plate)), 1.33e-09 M; at S1P3 [4] (96 well-plate, read-out: S1P3 binding Ki (M) (96 well-plate)), 1.73e-08 M; on S1P3 [4] (384 well-plate, read-out: S1P3 binding Ki (M) (384 well-plate)), 7.78e-08 M. For the same compound, in the series on lymphocytes, the “% Lymphopenia in mouse at 48 h” value worked out at 72 ± 5%. Besides, the “Plasma AUD?” value in series [5] is 202.751 µg·h/mL. Also, the “Lymph node/plasma ratio: 24 h” value in series [5] (24 h) was 0.8. For the same compound, the “Lymph node/plasma ratio: 48 h” value in series [5] (48 h) is 0.7. Further, the Kp in series [5] (female, C57BL/6, brain, oral, 30 mg/kg, ratio of AUC, read-out: Brain/Plasma-Ratio: AUCZ (h*ng/ml)) came out at 0.15. This compound also registered a Cmax in series [5] (setting [7]) of 10300 ng/mL. For the same compound, the Tmax in series [5] (setting [7]) amounted to 4 h. Moreover, the half-life in series [5] (setting [7]) amounted to 5.3 h. Further, the CL/F in series [5] (female, C57BL/6, plasma, po, 30 mg/kg, read-out: Cl/F (L/kg/h) (Fz%)) came out at 0.15 L/kg/h.
